Assay results published in patent US7935670B2, “Hepatitis C virus inhibitors” (Bristol-Myers Squibb Company, priority 2006, dated 2011).

Legend:
[1] = molecular target: T1, HCV NS3/4A protease complex, BMS strain (UniProt P27958, species not given/STRAIN_BMS); assay: FRET peptide assay to monitor HCV NS3/4A proteolytic activity (BMS strain); assay type: biochemical, HCV genotype 1a; conditions: NS3/4A BMS strain; read-out: Activity Range (IC50)
T1 construct: given for H77 and J4L6S, not expressly for BMS; fused on or other part: three-lysine solubilising tail at the end of NS4A (given for the H77 and J4L6S constructs)
T1 sequence (P27958 1027-1657, change not shown, one chain of several): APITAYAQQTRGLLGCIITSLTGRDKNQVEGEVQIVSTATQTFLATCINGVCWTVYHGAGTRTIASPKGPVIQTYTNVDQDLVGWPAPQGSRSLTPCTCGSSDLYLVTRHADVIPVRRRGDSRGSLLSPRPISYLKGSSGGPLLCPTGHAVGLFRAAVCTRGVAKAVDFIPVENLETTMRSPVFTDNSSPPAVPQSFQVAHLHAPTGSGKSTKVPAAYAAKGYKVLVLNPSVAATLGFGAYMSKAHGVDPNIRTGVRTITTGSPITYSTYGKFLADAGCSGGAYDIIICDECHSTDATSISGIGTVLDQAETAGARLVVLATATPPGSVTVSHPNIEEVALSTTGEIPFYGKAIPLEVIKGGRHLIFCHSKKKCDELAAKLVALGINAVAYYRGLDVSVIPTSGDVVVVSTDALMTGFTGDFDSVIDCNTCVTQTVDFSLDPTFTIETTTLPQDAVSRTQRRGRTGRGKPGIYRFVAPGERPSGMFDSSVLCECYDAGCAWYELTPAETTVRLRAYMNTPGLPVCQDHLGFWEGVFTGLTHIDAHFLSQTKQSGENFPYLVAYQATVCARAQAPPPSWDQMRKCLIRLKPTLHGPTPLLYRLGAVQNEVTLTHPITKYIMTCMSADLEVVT
Source text: HCV NS3 protease complexes, derived from the BMS strain, H77 strain or J4L6S strain, were generated, as described below. These purified recombinant proteins were generated for use in a homogeneous assay (see below) to provide an indication of how effective compounds of the present disclosure would be in inhibiting HCV NS3 proteolytic activity.
Serum from an HCV-infected patient was obtained from Dr. T. Wright, San Francisco Hospital. An engineered full-length cDNA (compliment deoxyribonucleic acid) template of the HCV genome (BMS strain) was constructed from DNA fragments obtained by reverse transcription-PCR(RT-PCR) of serum RNA (ribonucleic acid) and using primers selected on the basis of homology between other genotype 1a strains. From the determination of the entire genome sequence, a genotype 1a was assigned to the HCV isolate according to the classification of Simmonds et al. (See P Simmonds, K A Rose, S Graham, S W Chan, F McOmish, B C Dow, E A Follett, P L Yap and H Marsden, J. Clin. Microbiol., 31(6), 1493-1503 (1993)). […] The infectious clones, H77 (1a genotype) and J4L6S (1b genotype) were obtained from R. Purcell (NIH) and the sequences are published in Genbank (AAB67036, see Yanagi, M., Purcell, R. H., Emerson, S. U. and Bukh, J. Proc. Natl. Acad. Sci. U.S.A. 94(16), 8738-8743 (1997); AF054247, see Yanagi, M., St Claire, M., Shapiro, M., Emerson, S. U., Purcell, R. H. and Bukh, J, Virology 244 (1), 161-172. (1998)).
NS3/4A protease complex-containing fractions were pooled and loaded on a desalting column Superdex-S200 pre-equilibrated with buffer D (25 mM HEPES, pH 7.5, 20% glycerol, 300 mM NaCl, 0.2% Triton X-100, 10 mM βME). Sample was loaded at a flow rate of 1 mL/min. NS3/4A protease complex-containing fractions were pooled and concentrated to approximately 0.5 mg/ml. The purity of the NS3/4A protease complexes, derived from the BMS, H77 and J4L6S strains, were judged to be greater than 90% by SDS-PAGE and mass spectrometry analyses. The enzyme was stored at −80° C., thawed on ice and diluted prior to use in assay buffer.
The purpose of this in vitro assay was to measure the inhibition of HCV NS3 protease complexes, derived from the BMS strain, H77 strain or J4L6S strain, as described above, by compounds of the present disclosure. This assay provides an indication of how effective compounds of the present disclosure would be in inhibiting HCV NS3 proteolytic activity.
In order to monitor HCV NS3/4A protease activity, an NS3/4A peptide substrate was used. The substrate was RET S1 (Resonance Energy Transfer Depsipeptide Substrate; AnaSpec, Inc. cat #22991)(FRET peptide), described by Taliani et al. in Anal. Biochem. 240(2):60-67 (1996). The sequence of this peptide is loosely based on the NS4A/NS4B natural cleavage site for the HCV NS3 protease except there is an ester linkage rather than an amide bond at the cleavage site. The peptide also contains a fluorescence donor, EDANS, near one end of the peptide and an acceptor, DABCYL, near the other end. The fluorescence of the peptide is quenched by […] resonance energy transfer (RET) between the donor and the acceptor, but as the NS3 protease cleaves the peptide the products are released from RET quenching and the fluorescence of the donor becomes apparent.
The peptide substrate was incubated with one of the three recombinant NS3/4A protease complexes, in the absence or presence of a compound of the present disclosure. The inhibitory effects of a compound were determined by monitoring the formation of fluorescent reaction product in real time using a Cytofluor Series 4000.
Assay buffer: 50 mM HEPES, pH 7.5; 0.15 M NaCl; 0.1% Triton; 15% Glycerol; 10 mM βME. Substrate: 2 μM final concentration (from a 2 mM stock solution in DMSO stored at −20° C.). HCV NS3/4A protease type 1a (1b), 2-3 nM final concentration (from a 5 μM stock solution in 25 mM HEPES, pH 7.5, 20% glycerol, 300 mM NaCl, 0.2% Triton-X100, 10 mM βME). […]

[2] = tested on: HCV replicon in HUH-7 cells; assay: HCV replicon FRET assay; assay type: cell-based, HCV strain 1b; conditions: Hepatitis C virus, Huh-7, read-out: Activity Range (EC50)
Source text: An HCV replicon whole cell system was established as described by Lohmann V, Korner F, Koch J, Herian U, Theilmann L, Bartenschlager R., Science 285(5424): 110-3 (1999). This system enabled us to evaluate the effects of our HCV Protease compounds on HCV RNA replication. Briefly, using the HCV strain 1b sequence described in the Lohmann paper (Assession number: AJ238799), an HCV cDNA was synthesized by Operon Technologies, Inc. (Alameda, Calif.), and the full-length replicon was then assembled in plasmid pGem9zf(+) (Promega, Madison, Wis.) using standard molecular biology techniques. The replicon consists of (i) the HCV 5′ UTR fused to the first 12 amino acids of the capsid protein, (ii) the neomycin phosphotransferase gene (neo), (iii) the IRES from encephalomyocarditis virus (EMCV), and (iv) HCV NS3 to NS5B genes and the HCV 3′ UTR. Plasmid DNAs were linearized with ScaI and RNA transcripts were synthesized in vitro using the T7 MegaScript transcription kit (Ambion, Austin, Tex.) according to manufacturer's directions. In vitro transcripts of the cDNA were transfected into the human hepatoma cell line, HUH-7. […] Resulting cell lines were characterized for positive and negative strand RNA production and protein production over time.
The HCV replicon FRET assay was developed to monitor the inhibitory effects of compounds described in the disclosure on HCV viral replication. HUH-7 cells, constitutively expressing the HCV replicon, were grown in Dulbecco's Modified Eagle Media (DMEM) (Gibco-BRL) containing 10% Fetal calf serum (FCS) (Sigma) and 1 mg/ml G418 (Gibco-BRL). Cells were seeded the night before (1.5×10^4 cells/well) in 96-well tissue-culture sterile plates. Compound and no compound controls were prepared in DMEM containing 4% FCS, 1:100 Penicillin/Streptomysin (Gibco-BRL), 1:100 L-glutamine and 5% DMSO in the dilution plate (0.5% DMSO final concentration in the assay). Compound/DMSO mixes were added to the cells and incubated for 4 days at 37° C. After 4 days, cells were first assessed for cytotoxicity using alamar Blue (Trek Diagnotstic Systems) for a CC50 reading. The toxicity of compound (CC50) was determined by adding 1/10th volume of alamar Blue to the media incubating the cells. After 4 h, the fluorescence signal from each well was read, with an excitation wavelength at 530 nm and an emission wavelength of 580 nm, using the Cytofluor Series 4000 (Perspective Biosystems). Plates were then rinsed thoroughly with Phosphate-Buffered Saline (PBS) (3 times 150 μl). The cells were lysed with 25 μl of a lysis assay reagent containing an HCV protease substrate (5× cell Luciferase cell culture lysis reagent (Promega #E153A) diluted to 1× with distilled water, NaCl added to 150 mM final, the FRET peptide substrate (as described for the enzyme assay above) diluted to 10 μM final from a 2 mM stock in 100% DMSO. The plate was then placed into the Cytofluor 4000 instrument which had been set to 340 nm excitation/490 nm emission, automatic mode for 21 cycles and the plate read in a kinetic mode. EC50 determinations were carried out as described for the IC50 determinations.

| SMILES | IC50 [1] | EC50 [2] |
| --- | --- | --- |
| C=C[C@@H]1C[C@]1(NC(=O)[C@@H]1C[C@@H](OC(=O)c2ccc(F)cc2)CN1C(=O)[C@@H](NC(=O)OC(C)(C)C)C(C)(C)C)C(=O)NS(=O)(=O)C1CC1 [Compound 2] | 1 to 50 nM | 200 to 1000 nM |
| C=C[C@@H]1C[C@]1(NC(=O)[C@@H]1C[C@@H](OC(=O)c2ccc(OC)cc2)CN1C(=O)[C@@H](NC(=O)OC(C)(C)C)C(C)(C)C)C(=O)NS(=O)(=O)C1CC1 [Compound 3] | 1 to 50 nM | 25 to 200 nM |
| C=C[C@@H]1C[C@]1(NC(=O)[C@@H]1C[C@@H](OC(=O)c2ccc(-c3ccccc3)cc2)CN1C(=O)[C@@H](NC(=O)OC(C)(C)C)C(C)(C)C)C(=O)NS(=O)(=O)C1CC1 [Compound 4] | 1 to 50 nM | 200 to 1000 nM |
| C=C[C@@H]1C[C@]1(NC(=O)[C@@H]1C[C@@H](OC(=O)c2ccc3ncccc3c2)CN1C(=O)[C@@H](NC(=O)OC(C)(C)C)C(C)(C)C)C(=O)NS(=O)(=O)C1CC1 [Compound 5] | 1 to 50 nM | 25 to 200 nM |
| C=C[C@@H]1C[C@]1(NC(=O)[C@@H]1C[C@@H](OC(=O)c2ccc3sccc3c2)CN1C(=O)[C@@H](NC(=O)OC(C)(C)C)C(C)(C)C)C(=O)NS(=O)(=O)C1CC1 [Compound 6] | 1 to 50 nM | 25 to 200 nM |
| C=C[C@@H]1C[C@]1(NC(=O)[C@@H]1C[C@@H](OC(=O)c2ccc3c(c2)CCO3)CN1C(=O)[C@@H](NC(=O)OC(C)(C)C)C(C)(C)C)C(=O)NS(=O)(=O)C1CC1 [Compound 7] | 1 to 50 nM | 25 to 200 nM |
